Where two headings read alike, the source gives them in different places.
Tests used:
[1] = target: Rat α4β2 (Rattus norvegicus, UniProt P09483+P12390); assay: Binding to rat α4β2 NNR (Ki)
Method: (§1) Binding and function of the compounds to relevant receptor sites was determined in accordance with the techniques described in PCT WO 2008/057938. Inhibition constants (Ki values), reported in nM, were calculated from the IC50 values using the method of Cheng et al., Biochem. Pharmacol. 22: 3099 (1973). […] Thus, the compounds of the present invention are selective modulators of the α4β2 NNR subtype.

[2] = tested on: nicotinic; assay: Standard receptor screen at 10 μM: nicotinic; type: binding; settings: hydrochloride salt
Method: (§2) Both Compound A, (R)-7-(3-pyridinyl)-1,7-diazaspiro[4.4]nonane, and Compound B, (S)-7-(3-pyridinyl)-1,7-diazaspiro[4.4]nonane, each as their hydrochloride salts, were screened, at 10 μM concentration, against a standard set of receptors. […] Thus, the two stereoisomers differentiate from one another in terms of their non-nicotinic receptor binding characteristics. This differentiation is believed to translate into a differentiation between the ability of each of (R)-7-(3-pyridinyl)-1,7-diazaspiro[4.4]nonane and (S)-7-(3-pyridinyl)-1,7-diazaspiro[4.4]nonane to treat various disease states, including, for example, the ability of Compound A to enhance desensitization of α4β2 NNRs.

[3] = tested on: A/J mice; assay: Depression model, tail suspension (TS); type: in vivo; settings: 0.1 mg/kg (p-hydroxybenzoate), 10 min test
Method: On the day of the test, A/J mice were brought to acclimate to the testing room for one hour. Eight animals were tested in each run. Following pretreatment with vehicle, desipramine (20 mg/kg) or Compound A, p-hydroxybenzoate (0.1, 0.3, and 1 mg/kg), a piece of transparent (Scotch) tape was attached to the tail of each mouse from about mid-tail with approximately 2 cm of tape past the end of the tail. The mice were then placed in the tail suspension chambers (white polyvinylchloride cubicles measuring 33×33×31.75 cm; Med Associates Inc., St Albans, Vt.). The mice were suspended from the hook of the TS force transducer via the tail tape. The force transducer transmitted the movements of the mouse to a recording device connected to a computer. Immobility time, struggle time, and intensity were automatically recorded for each min during the 10 min test period. Upon completion of the TS test, the mice were returned to their home cage and then to the animal colony. The TS chambers were cleaned between sessions. Data were analyzed by repeated measures and one-way analysis of variance (ANOVA) followed by Fisher PLSD post-hoc comparisons. An effect was considered significant if p<0.05.

[4] = tested on: rats; assay: Seizure/convulsion induction after acute dose, rats; type: in vivo
Method: For example, preclinically, Compound C induced seizures following acute doses:
Likewise, Compound B induced convulsion in 1/6 male rats following an acute oral dose of 300 mg/kg.
In fact, the effect of Compound A was not statistically different from the vehicle control.

[5] = tested on: rat; assay: Anxiety model, elevated plus maze (EPM); type: in vivo; settings: 0.02, 0.06, and 0.21 mg/kg i.p. 30 minutes before the test, FIG. 1
Text: The method, which detects anxiolytic activity, follows that described by Handley S. L. and Mithani S., Effects of alpha-adrenoceptor agonists and antagonists in a maze-exploration model of fear-motivated behaviour, Naunyn-Schmied. Arch. Pharmacol., 327, 1-5, 1984.
Rodents avoid open spaces (the open arms of an elevated plus-maze). Anxiolytics increase exploratory activity in the open arms. The maze consisted of 4 arms of equal length and width arranged in the form of a plus sign (+). Two opposite arms were enclosed by walls (closed arms). The two other arms had no walls (open arms). The maze was raised above the floor. A rat was placed in the centre of the plus-maze and left to explore for 5 minutes. The number of entries into the open and closed arms and the time spent in the open arms were recorded.
Ten (10) rats were studied per group. The test was performed blind. Compound A was evaluated at 0.02, 0.06, and 0.21 mg/kg, administered i.p. 30 minutes before the test, and compared with a vehicle control group. Clobazam, administered under the same experimental conditions, was used as reference substance. The experiment therefore included […].
Data were analyzed by comparing the treated groups with the control group using unpaired tests.

[6] = target: histamine H1 (Homo sapiens, UniProt P35367); assay: Standard receptor screen at 10 μM: histamine H1; type: binding; settings: hydrochloride salt, read-out: inhibition at histamine H1 receptors
Method: as §2

[7] = target: Rat α7 (Rattus norvegicus, UniProt Q05941); assay: Binding to rat α7 NNR (Ki)
Chain of Rat α7 (Q05941 23-502): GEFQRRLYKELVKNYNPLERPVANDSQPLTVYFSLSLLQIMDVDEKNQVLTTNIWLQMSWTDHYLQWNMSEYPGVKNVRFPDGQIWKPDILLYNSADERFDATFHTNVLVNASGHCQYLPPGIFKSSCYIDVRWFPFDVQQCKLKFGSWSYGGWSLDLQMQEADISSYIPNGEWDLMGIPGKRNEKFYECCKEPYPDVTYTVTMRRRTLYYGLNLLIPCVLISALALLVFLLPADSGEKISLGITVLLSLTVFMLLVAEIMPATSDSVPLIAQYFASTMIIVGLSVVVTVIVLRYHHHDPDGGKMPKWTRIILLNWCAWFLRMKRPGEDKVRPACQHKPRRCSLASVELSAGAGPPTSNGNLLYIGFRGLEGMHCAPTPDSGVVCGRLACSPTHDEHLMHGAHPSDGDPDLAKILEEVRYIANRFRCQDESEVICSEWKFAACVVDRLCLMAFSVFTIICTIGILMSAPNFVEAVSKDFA
Method: as §1

[8] = target: Human Muscle (Homo sapiens, UniProt P02708+P07510+Q07001); assay: Function at human muscle subtype, single point 100 μM; type: cell-based
Chain of Human Muscle (P02708 21-457): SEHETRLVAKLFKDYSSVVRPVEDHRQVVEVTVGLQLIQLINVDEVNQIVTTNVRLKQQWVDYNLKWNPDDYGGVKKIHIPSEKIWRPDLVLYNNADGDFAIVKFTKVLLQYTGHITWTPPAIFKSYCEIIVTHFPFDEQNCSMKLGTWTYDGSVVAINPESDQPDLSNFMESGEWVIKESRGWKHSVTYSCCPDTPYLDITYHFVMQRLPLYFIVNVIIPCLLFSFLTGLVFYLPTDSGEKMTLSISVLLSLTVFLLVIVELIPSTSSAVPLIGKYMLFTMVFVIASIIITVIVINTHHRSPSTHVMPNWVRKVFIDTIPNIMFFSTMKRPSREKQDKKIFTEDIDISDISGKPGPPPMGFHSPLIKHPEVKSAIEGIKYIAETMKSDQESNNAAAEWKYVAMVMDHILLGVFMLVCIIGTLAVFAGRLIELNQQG
Chain of Human Muscle (P11230 24-501 partner): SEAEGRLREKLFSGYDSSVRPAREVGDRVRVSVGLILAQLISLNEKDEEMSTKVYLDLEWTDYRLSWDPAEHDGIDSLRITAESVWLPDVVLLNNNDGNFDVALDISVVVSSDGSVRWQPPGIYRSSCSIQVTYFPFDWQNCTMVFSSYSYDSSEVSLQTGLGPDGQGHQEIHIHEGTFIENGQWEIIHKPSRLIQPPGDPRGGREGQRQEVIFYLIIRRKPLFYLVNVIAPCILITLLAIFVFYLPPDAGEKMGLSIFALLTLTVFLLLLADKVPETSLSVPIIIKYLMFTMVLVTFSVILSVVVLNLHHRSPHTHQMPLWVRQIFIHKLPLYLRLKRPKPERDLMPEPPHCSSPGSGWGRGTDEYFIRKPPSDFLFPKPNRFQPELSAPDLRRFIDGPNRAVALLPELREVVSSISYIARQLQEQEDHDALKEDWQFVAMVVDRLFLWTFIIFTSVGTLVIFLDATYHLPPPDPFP
Chain of Human Muscle (P07510 23-517): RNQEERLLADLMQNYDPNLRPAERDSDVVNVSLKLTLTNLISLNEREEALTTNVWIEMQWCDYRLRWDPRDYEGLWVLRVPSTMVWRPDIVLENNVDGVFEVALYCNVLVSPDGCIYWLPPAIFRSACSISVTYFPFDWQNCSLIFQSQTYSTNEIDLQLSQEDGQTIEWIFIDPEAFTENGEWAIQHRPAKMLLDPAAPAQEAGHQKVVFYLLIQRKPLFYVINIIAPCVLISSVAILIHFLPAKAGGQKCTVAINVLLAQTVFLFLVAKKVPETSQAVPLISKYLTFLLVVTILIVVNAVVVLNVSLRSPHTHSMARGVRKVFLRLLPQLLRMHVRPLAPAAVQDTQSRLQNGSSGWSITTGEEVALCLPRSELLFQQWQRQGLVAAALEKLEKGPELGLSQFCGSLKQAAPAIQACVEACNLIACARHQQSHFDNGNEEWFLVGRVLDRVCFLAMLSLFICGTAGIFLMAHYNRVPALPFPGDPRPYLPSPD
Chain of Human Muscle (Q07001 22-517): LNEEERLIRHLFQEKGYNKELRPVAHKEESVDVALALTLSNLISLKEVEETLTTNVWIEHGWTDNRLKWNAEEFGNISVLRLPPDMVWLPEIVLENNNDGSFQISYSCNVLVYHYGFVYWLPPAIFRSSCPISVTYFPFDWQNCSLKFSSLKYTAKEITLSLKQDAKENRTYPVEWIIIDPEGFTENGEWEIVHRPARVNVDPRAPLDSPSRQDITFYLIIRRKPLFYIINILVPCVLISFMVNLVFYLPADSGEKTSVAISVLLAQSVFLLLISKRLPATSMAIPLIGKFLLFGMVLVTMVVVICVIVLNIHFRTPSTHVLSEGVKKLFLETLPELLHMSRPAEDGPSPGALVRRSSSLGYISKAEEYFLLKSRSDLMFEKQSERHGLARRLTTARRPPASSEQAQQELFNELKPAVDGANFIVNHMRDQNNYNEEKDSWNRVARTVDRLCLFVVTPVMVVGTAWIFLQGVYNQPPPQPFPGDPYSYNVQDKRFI
Method: as §1

[9] = target: Human Ganglion (Homo sapiens, UniProt P30926+P32297); assay: Function at human ganglion subtype, single point 100 μM; type: cell-based
Method: as §1

[10] = target: T1, human α4β2 NNRs (Homo sapiens, UniProt P17787+P43681); assay: Function at human α4β2 NNRs, SH-EP1/human a4b2 cells, FLIPR calcium; type: cell-based
T1 construct: expressed in transfected cells; host or cells: SH-EP1
T1 sequence (P43681 29-627 limits assumed): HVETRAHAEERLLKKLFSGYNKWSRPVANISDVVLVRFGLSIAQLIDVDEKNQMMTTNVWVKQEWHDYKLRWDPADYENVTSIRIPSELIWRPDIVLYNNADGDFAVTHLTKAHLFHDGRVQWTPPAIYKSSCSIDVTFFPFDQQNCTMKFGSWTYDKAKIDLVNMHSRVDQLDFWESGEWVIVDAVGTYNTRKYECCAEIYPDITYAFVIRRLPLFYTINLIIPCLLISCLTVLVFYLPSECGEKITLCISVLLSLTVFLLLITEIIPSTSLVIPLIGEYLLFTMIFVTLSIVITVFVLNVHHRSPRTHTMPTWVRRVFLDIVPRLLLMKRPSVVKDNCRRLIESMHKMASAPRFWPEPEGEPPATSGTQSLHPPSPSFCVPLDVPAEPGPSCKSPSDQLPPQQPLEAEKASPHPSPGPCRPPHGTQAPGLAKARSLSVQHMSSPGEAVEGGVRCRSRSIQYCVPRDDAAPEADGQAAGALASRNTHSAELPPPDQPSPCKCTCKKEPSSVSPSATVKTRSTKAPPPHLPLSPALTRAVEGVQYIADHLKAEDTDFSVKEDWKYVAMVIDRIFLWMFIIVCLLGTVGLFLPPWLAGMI
T1 sequence (P17787 26-502): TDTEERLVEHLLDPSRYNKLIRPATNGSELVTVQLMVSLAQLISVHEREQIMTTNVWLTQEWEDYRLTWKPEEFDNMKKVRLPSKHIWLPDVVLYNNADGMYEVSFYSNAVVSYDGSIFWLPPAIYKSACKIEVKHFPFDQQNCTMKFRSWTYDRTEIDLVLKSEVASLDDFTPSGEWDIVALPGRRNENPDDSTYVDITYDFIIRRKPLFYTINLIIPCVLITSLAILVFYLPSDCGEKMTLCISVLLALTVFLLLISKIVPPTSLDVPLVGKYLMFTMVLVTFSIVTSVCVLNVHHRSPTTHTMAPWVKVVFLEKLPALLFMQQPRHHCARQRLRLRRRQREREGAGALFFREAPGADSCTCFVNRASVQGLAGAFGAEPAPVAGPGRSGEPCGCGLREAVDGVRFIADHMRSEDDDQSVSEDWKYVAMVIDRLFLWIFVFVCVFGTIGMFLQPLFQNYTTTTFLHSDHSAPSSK
Method: as §1
After the loading period, plates were equilibrated to room temperature and the cells exposed to the test article ([…]) or nicotine or buffer alone on a FLIPR (Molecular Devices). Fluorescence (at 485 nm) was monitored throughout the experiment. The test article change in fluorescence was compared to both a positive control (10 μM nicotine) and a negative control (buffer alone) to determine the percent response relative to that of nicotine.

[11] = target: Human α4β2 (Homo sapiens, UniProt P17787+P43681); assay: Binding to human α4β2 NNR (Ki)
Chain of Human α4β2 (P43681 29-627 limits assumed): as the sequence (P43681 29-627 limits assumed) above
Chain of Human α4β2 (P17787 26-502): as the sequence (P17787 26-502) above
Method: as §1

[12] = tested on: animal models of depression and anxiety; assay: Validated animal models of depression and anxiety (summary statement); settings: in vivo
[13] = Single rising dose (SRD) study of Compound C, plasma pharmacokinetics of racemate and enantiomers; type: in vivo; settings: for t1/2 (mean) / half-life / Cmax / Tmax / AUC(0-inf): plasma; for t1/2 (mean): Table 3; for half-life / Cmax / Tmax / AUC(0-inf): human; for AUC(0-inf): read-out: AUCinf (mean)
Method: A single, rising dose (SRD) study was performed with Compound C (the racemate). Plasma samples were analyzed for the content of the two enantiomers, Compound A (substantially pure R), Compound B (substantially pure S). Three dose groups (Compound C) were analyzed, 50, 100, and 400 mg, and four subjects were randomly selected from the 6 subjects tested to receive active treatment in each cohort examined in the SRD study.

[14] = tested on: mice; assay: Seizure induction after acute dose, mice; type: in vivo; settings: female mice; acute oral dose of 400 mg/kg
Text: For example, preclinically, Compound C induced seizures following acute doses: […]

[15] = SH-EP1/human a4b2 cells, FLIPR calcium, relative to 10 μM nicotine, read-out: Human α4β2 Emax (% of nic resp)
[16] = po, 50 mg Compound C (n = 4), read-out: Mean (SD) Terminal Elimination Half-life (converted)
[17] = po, 100 mg Compound C (n = 4), read-out: Mean (SD) Terminal Elimination Half-life (converted)
[18] = po, 400 mg Compound C (n = 4), read-out: Mean (SD) Terminal Elimination Half-life (converted)

Chain of Rat α4β2 (P09483 31-630): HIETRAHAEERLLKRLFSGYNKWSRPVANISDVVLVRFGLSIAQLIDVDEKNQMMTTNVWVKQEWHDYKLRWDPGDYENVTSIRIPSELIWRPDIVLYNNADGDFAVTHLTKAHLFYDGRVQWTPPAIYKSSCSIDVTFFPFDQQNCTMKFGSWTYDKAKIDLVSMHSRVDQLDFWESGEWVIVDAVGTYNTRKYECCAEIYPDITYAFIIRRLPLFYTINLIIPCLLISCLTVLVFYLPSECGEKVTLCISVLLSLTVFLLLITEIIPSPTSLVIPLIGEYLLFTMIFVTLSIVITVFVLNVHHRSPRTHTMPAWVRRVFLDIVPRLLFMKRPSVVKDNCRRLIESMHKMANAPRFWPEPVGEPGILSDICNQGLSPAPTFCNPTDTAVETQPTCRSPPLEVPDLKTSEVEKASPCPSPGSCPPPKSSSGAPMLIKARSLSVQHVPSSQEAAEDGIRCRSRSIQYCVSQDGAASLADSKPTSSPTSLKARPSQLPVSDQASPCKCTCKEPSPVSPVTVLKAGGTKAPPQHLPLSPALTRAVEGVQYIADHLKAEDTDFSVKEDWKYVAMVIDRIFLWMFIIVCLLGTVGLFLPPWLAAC
Chain of Rat α4β2 (P12390 25-500): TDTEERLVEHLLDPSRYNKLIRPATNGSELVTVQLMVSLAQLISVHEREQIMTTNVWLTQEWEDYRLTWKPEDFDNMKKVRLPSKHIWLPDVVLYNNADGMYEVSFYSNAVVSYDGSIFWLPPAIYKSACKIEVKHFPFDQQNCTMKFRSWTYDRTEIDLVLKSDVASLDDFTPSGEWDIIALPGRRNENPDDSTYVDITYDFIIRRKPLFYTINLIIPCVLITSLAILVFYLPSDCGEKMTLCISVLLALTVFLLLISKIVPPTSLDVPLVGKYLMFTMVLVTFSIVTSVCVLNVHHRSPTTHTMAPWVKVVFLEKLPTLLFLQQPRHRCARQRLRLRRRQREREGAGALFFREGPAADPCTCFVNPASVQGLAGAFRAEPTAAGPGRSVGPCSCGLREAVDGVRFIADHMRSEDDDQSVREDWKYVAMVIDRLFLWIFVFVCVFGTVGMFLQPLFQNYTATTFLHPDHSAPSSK

SMILES | Human Muscle SP (100 μM) [8] | Human Ganglion SP (100 μM) [9] | Emax [10, 15] | t1/2 (mean) ([13]; 50 mg Compound C (n = 4)) | t1/2 (mean) ([13]; 100 mg Compound C (n = 4)) | t1/2 (mean) ([13]; 400 mg Compound C (n = 4)) | Cmax ([13]; po, 50 mg Compound C (n = 4)) | Tmax ([13]; po, 50 mg Compound C (n = 4)) | AUC(0-inf) ([13]; po, 50 mg Compound C (n = 4)) | half-life [13, 16] | Cmax ([13]; po, 100 mg Compound C (n = 4)) | Tmax ([13]; po, 100 mg Compound C (n = 4)) | AUC(0-inf) ([13]; po, 100 mg Compound C (n = 4)) | half-life [13, 17] | Cmax ([13]; po, 400 mg Compound C (n = 4)) | Tmax ([13]; po, 400 mg Compound C (n = 4)) | AUC(0-inf) ([13]; po, 400 mg Compound C (n = 4)) | half-life [13, 18] | other results
c1cncc(N2CC[C@]3(CCCN3)C2)c1 [Compound A, (R)-7-(3-pyridinyl)-1,7-diazaspiro[4.4]nonane] | 6 | 3 | 9% | 27.5 h | 23.7 h | 22.4 h | 10.3 ng/mL | 4.38 h | 256 ng·h/mL | 27.5 h | 22.7 ng/mL | 3.25 h | 451 ng·h/mL | 23.7 h | 163 ng/mL | 2 h | 2420 ng·h/mL | 22.4 h | Ki ([1]; read-out: Rat α4β2 Ki): 74 nM; inhibition at nicotinic receptors [2]: 99 % inhibition; struggle intensity compared to saline [3]: increased struggle intensity; total time immobile compared to saline [3]: decreased total time immobile; effect on seizure induction ([4]; under the same conditions (as Compound B: acute oral dose of 300 mg/kg, male rats)): no effect on seizure induction; Activity in the EPM [5]: anxiolytic-like activity; inhibition at 10 µM [6]: 66%; Ki ([7]; read-out: Rat α7 Ki): 5400 nM; Emax ([10]; SH-EP1, read-out: Emax at human α4β2 NNRs): 9%; EC50 ([10]; read-out: EC50 at human α4β2 NNRs): 84000 nM; Ki ([11]; read-out: Human α4β2 Ki): 40 nM; Efficacy in multiple validated animal models of depression and anxiety [12]: demonstrated efficacy; half-life ([13]; oral, after Compound C 50, 100, 400 mg, read-out: terminal elimination half-life longer than that of Compound B (converted)): ~6 h; share of total exposure (Cmax and AUCinf) compared to the racemate, Compound C ([13]; oral administration of Compound C): approximately half
c1cncc(N2CCC3(CCCN3)C2)c1 (racemic) [Compound C, 7-(3-pyridinyl)-1,7-diazaspiro[4.4]nonane] | 22 | 15 | 43% | 24.8 h | 21.1 h | 18.5 h | 21.8 ng/mL | 4.38 h | 473 ng·h/mL | 24.8 h | 44.7 ng/mL | 31.1 h | 741 ng·h/mL | 21.1 h | 295 ng/mL | 2 h | 3680 ng·h/mL | 18.5 h | Ki [1]: 68 nM; induced seizures (animals affected) ([4]; female rats, acute IV dose of 100 mg/kg): 4/5 female rats; induced seizures (animals affected) ([4]; female rats, acute oral dose of 200 mg/kg): 1/5 female rats; induced seizures (animals affected) ([4]; female rats, acute oral dose of 800 mg/kg): 1/5 female rats; induced seizures (animals affected) ([4]; male rats, acute IV dose of 100 mg/kg): 1/5 male rats; induced seizures (animals affected) ([4]; male rats, acute oral dose of 800 mg/kg): 1/5 male rats; Ki [7]: > 10000 nM; induced seizures (animals affected) [14]: 1/5 female mice; EC50 ([10]; SH-EP1/human a4b2 cells, FLIPR calcium, read-out: Human α4β2 EC50): 9100 nM; Ki [11]: 34 nM

Source: patent US20110118239A1, “PREPARATION AND ENANTIOMERIC SEPARATION OF 7-(3-PYRIDINYL)-1,7-DIAZASPIRO[4.4]NONANE AND NOVEL SALT FORMS OF THE RACEMATE AND ENANTIOMERS” (Targacept, Inc., priority 2008, published 2011)
